Inhibition and IC50 data for 23 molecules are collected here from patent US12655145B2, “P2X3 modulators” (GlaxoSmithKline Intellectual Property (No. 3) Limited, priority 2020, dated 2026).

A value given as a limit tells only on which side of the number the result lay.

In one assay the target is T1, P2X3 (Homo sapiens, UniProt P56373).
T1 construct: expressed in transfected cells; host or cells: HEK293
T1 sequence (P56373 1-397): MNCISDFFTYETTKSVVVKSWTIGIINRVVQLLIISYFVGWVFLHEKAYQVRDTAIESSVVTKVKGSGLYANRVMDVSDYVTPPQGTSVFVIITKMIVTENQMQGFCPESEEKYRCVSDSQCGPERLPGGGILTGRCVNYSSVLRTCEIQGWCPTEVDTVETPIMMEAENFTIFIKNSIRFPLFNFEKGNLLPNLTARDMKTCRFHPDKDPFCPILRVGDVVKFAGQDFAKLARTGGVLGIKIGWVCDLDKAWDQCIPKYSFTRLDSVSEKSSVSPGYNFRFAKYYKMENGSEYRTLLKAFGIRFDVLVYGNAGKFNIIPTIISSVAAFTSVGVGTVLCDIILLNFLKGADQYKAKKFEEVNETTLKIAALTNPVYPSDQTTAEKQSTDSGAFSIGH
Nature of the assay: P2X3 Antagonist Assay (FLIPR calcium, Fluo-8, HEK293 cells transfected with human ion channel cDNAs, αβ-meATP stimulation). To be noted: HEK293, @ 1 μM, antagonist mode, αβ-meATP 3 μM, read-out: P2X3 IC50 column, given as % @ 1 μM. It counts as cell-based. How it is done: Example 59: P2X3 Antagonist Assay
HEK293 were transiently or stably transfected with human ion channel cDNAs as indicated in section 1. Stable transfectants were selected by coexpression with the antibiotic-resistance gene(s) incorporated into the expression plasmid(s). Selection pressure was maintained by including selection antibiotics in the culture medium. HEK293 cells were cultured in Dulbecco's Modified Eagle Medium/Nutrient Mixture F-12 (D-MEM/F-12) supplemented with 10% fetal bovine serum, 100 U/mL penicillin G sodium, 100 J·Lg/mL streptomycin sulfate and appropriate selection antibiotics.
The effect of each test article to act as an antagonist was evaluated. Each test article was evaluated at eight (8) concentrations (0.001, 0.003, 0.01, 0.03, 0.1, 0.3, 1 and 3 μM, n=3) with 4 replicates for each concentration. Experiments were performed with the FLIPR calcium sensitive dye kit (Fluo-8 dye, AAT, Bioquest) according to the manufacturer's instructions. • Dye-loading: Growth media will be removed and add 20 μL of Mg^++-free HBPS containing Fluo-8 for 30 min at 37° C. • Preincubation (FLIPR step 1): Adding 5× (5 μL) test, vehicle, or control article solutions in Mg^+-free HBPS to each well for 20 minutes at room temperature, protected from light. • Stimulation (FLIPR step 2): After pre-incubation, cells will be stimulated with 6× (5 μL) αβ-meATP at final concentration of 3 μM prepared in Mg^++-free HBPS. • Non-Specific Calcium Influx (FLIPR step 3): 5 minutes after stimulation solution addition, non-specific calcium influx will be activated by adding 7×(5 μL) ionomycin at a final concentration of 5 μM. Fluorescence will be recorded continuously during FLIPR steps 2 and 3. • Positive Control Antagonist: PPADS (1 mM).
Data acquisition was performed via the FLIPRControl software that is supplied with the FLIPR System (MDS-AT) and data was analyzed using Microsoft Excel2003 (Microsoft Corp., Redmond, WA).
`CNC(=O)c1cc(F)c(-c2nc3cc(C)cnn3c2C[C@H]2CN(C(=O)OC)CCO2)c(F)c1` [Compound A27, methyl (S)-2-((2-(2,6-difluoro-4-(methylcarbamoyl)phenyl)-7-methylimidazo[1,2-b]pyridazin-3-yl)methyl)morpholine-4-carboxylate]: the inhibition at 1 µM is 6%.

For `CNC(=O)c1cc(F)c(-c2c(C[C@H]3CN(C(=O)OC)CCO3)nc3nc(C)ccn23)c(F)c1` [Compound A33, methyl (S)-2-((3-(2,6-difluoro-4-(methylcarbamoyl)phenyl)-7-methylimidazo[1,2-a]pyrimidin-2-yl)methyl)morpholine-4-carboxylate], the inhibition at 1 µM turned out to be 5%.

Take `CNC(=O)c1ccc(-c2nc3cc(C4CC4)ccn3c2C[C@H]2CN(C(=O)OC)CCO2)c(F)c1` [Compound A52, methyl (S)-2-((7-cyclopropyl-2-(2-fluoro-4-(methylcarbamoyl)-phenyl)imidazo[1,2-a]pyridin-3-yl)methyl)morpholine-4-carboxylate]: the inhibition at 1 µM came to 50%.

Turning to `COC(=O)N1CCO[C@@H](Cc2c(-c3ccc([S+](C)[O-])cc3F)nc3cc(C)ccn23)C1` (stereo partly drawn) [Compound A58, methyl (2S)-2-((2-(2-fluoro-4-(methylsulfinyl)phenyl)-7-methyl-imidazo[1,2-a]pyridin-3-yl)methyl)morpholine-4-carboxylate], the inhibition at 1 µM worked out at 16%.

Still in this assay, the particulars now being: antagonist mode, αβ-meATP 3 μM.
Broadly, the IC50 is the concentration needed to halve the response being measured. On to `CNC(=O)c1cc(F)c(-c2[nH]c3cc(C)cnc3c2C[C@H]2CN(C(=O)OC)CCO2)c(F)c1` [Compound A26, methyl (S)-2-((2-(2,6-difluoro-4-(methylcarbamoyl)phenyl)-6-methyl-1H-pyrrolo[3,2-b]pyridin-3-yl)methyl)morpholine-4-carboxylate], for which the IC50 is above 1000 nM.

Regarding `CNC(=O)c1cc(F)c(-c2nc3nc(C)ccn3c2C[C@H]2CN(C(=O)OC)CCO2)c(F)c1` [Compound A28, methyl (S)-2-((2-(2,6-difluoro-4-(methylcarbamoyl)phenyl)-7-methylimidazo[1,2-a]pyrimidin-3-yl)methyl)morpholine-4-carboxylate], the IC50 was below 100 nM.

`CNC(=O)c1cc(F)c(-c2nc3cc(C)ncn3c2C[C@H]2CN(C(=O)OC)CCO2)c(F)c1` [Compound A29, methyl (S)-2-((2-(2,6-difluoro-4-(methylcarbamoyl)phenyl)-7-methylimidazo[1,2-c]pyrimidin-3-yl)methyl)morpholine-4-carboxylate]: the IC50 was below 100 nM.

Take `CNC(=O)c1cc(F)c(-c2nc3cc(C)ccn3c2C[C@H]2CN(C(=O)OC)CCO2)c(OC)c1F` [Compound A30, methyl (S)-2-((2-(3,6-difluoro-2-methoxy-4-(methylcarbamoyl)-phenyl)-7-methylimidazo[1,2-a]pyridin-3-yl)methyl)morpholine-4-carboxylate]: the IC50 was below 100 nM.

`CNC(=O)c1cc(F)c(-c2[nH]c3cccc(C)c3c2C[C@H]2CN(C(=O)OC)CCO2)c(F)c1` [Compound A31, methyl (S)-2-((2-(2,6-difluoro-4-(methylcarbamoyl)phenyl)-4-methyl-1H-indol-3-yl)methyl)morpholine-4-carboxylate]: the IC50 was above 1000 nM.

For `CNC(=O)c1ccc(-c2nc3cc(C(F)F)ccn3c2C[C@H]2CN(C(=O)OC)CCO2)c(Cl)c1` [Compound A32, methyl (S)-2-((2-(2-chloro-4-(methylcarbamoyl)phenyl)-7-(di-fluoromethyl)imidazo[1,2-a]pyridin-3-yl)methyl)morpholine-4-carboxylate], the IC50 was below 100 nM.

As for `CNC(=O)c1cc(F)c(-c2nc3n(c2C[C@H]2CN(C(=O)OC)CCO2)CCC(C)C3)c(F)c1` (stereo partly drawn) [Compound A34, methyl (2S)-2-((2-(2,6-difluoro-4-(methylcarbamoyl)phenyl)-7-methyl-5,6,7,8-tetrahydroimidazo[1,2-a]pyridin-3-yl)methyl)morpholine-4-carboxylate], the IC50 lay in the range of 100 to 1000 nM.

For the molecule `CNC(=O)c1cc(F)c(-c2c(C[C@H]3CN(C(=O)OC)CCO3)nc3cc(C)ncn23)c(F)c1` [Compound A37], the IC50 lay within 100 to 1000 nM.

For the molecule `CNC(=O)c1cc(F)c(-c2nc3cc(Cl)ccn3c2C[C@H]2CN(C(=O)OC)CCO2)c(OC)c1F` [Compound A40, methyl (S)-2-((7-chloro-2-(3,6-difluoro-2-methoxy-4-(methyl-carbamoyl)phenyl)imidazo[1,2-a]pyridin-3-yl)methyl)morpholine-4-carboxylate], the IC50 was below 100 nM.

On to `CNC(=O)c1cc(F)c(-c2nc3cc(C(F)F)ccn3c2C[C@H]2CN(C(=O)OC)CCO2)c(OC)c1F` [Compound A41, methyl (S)-2-((2-(3,6-difluoro-2-methoxy-4-(methylcarbamoyl)-phenyl)-7-(difluoromethyl)imidazo[1,2-a]pyridin-3-yl)methyl)morpholine-4-carboxylate], for which the 50% inhibitory concentration (IC50) fell in the range of 100 to 1000 nM.

As for `CNC(=O)c1ccc(-c2nc3cc(C(F)F)ccn3c2C[C@H]2CN(C(=O)OC)CCO2)c(F)c1` [Compound A42, methyl (S)-2-((7-(difluoromethyl)-2-(2-fluoro-4-(methylcarbamoyl)phenyl)imidazo[1,2-a]pyridin-3-yl)methyl)morpholine-4-carboxylate], the IC50 was below 100 nM.

Regarding `CNC(=O)c1ccc(-c2nc3cc(C(F)F)ccn3c2C[C@H]2CN(C(=O)OC)CCO2)c(C)c1` [Compound A43, methyl (S)-2-((7-(difluoromethyl)-2-(2-methyl-4-(methylcarbamoyl)phenyl)imidazo[1,2-a]pyridin-3-yl)methyl)morpholine-4-carboxylate], the concentration for half-maximal inhibition (IC50) is below 100 nM.

`CNC(=O)c1cc(C)c(-c2nc3cc(C(F)F)ccn3c2C[C@H]2CN(C(=O)OC)CCO2)cc1F` [Compound A44, methyl (S)-2-((7-(difluoromethyl)-2-(5-fluoro-2-methyl-4-(meth-ylcarbamoyl)phenyl)imidazo[1,2-a]pyridin-3-yl)methyl)morpholine-4-carboxylate]: the IC50 is below 100 nM.

As to `CCc1ccn2c(C[C@H]3CN(C(=O)OC)CCO3)c(-c3ccc(C(=O)NC)cc3F)nc2c1` [Compound A45, methyl (S)-2-((7-ethyl-2-(2-fluoro-4-(methylcarbamoyl)phenyl)imidazo[1,2-a]pyridin-3-yl)methyl)morpholine-4-carboxylate], the IC50 was below 100 nM.

Take `CNC(=O)c1ccc(-c2nc3cc(S(C)(=O)=O)ccn3c2C[C@H]2CN(C(=O)OC)CCO2)c(F)c1` [Compound A48, methyl (S)-2-((2-(2-fluoro-4-(methylcarbamoyl)phenyl)-7-(methylsulfonyl)imidazo[1,2-a]-pyridin-3-yl)methyl)morpholine-4-carboxylate]: the 50% inhibitory concentration (IC50) is above 1000 nM.

In the case of `CNC(=O)c1ccc(-c2nc3cc(CF)ccn3c2C[C@H]2CN(C(=O)OC)CCO2)c(F)c1` [Compound A49, methyl (S)-2-((2-(2-fluoro-4-(methylcarbamoyl)phenyl)-7-(fluoromethyl)imidazo[1,2-a]pyridin-3-yl)methyl)morpholine-4-carboxylate], the IC50 fell in the range of 100 to 1000 nM.

In the case of `COC(=O)N1CCO[C@@H](Cc2c(-c3ccc(S(C)(=O)=O)cc3F)nc3cc(C)ccn23)C1` [Compound A61, methyl (S)-2-((2-(2-fluoro-4-(methylsulfonyl)phenyl)-7-methylimidazo[1,2-a]pyridin-3-yl)methyl)morpholine-4-carboxylate], the IC50 lay within 100 to 1000 nM.

Take `COC(=O)N1CCO[C@@H](Cc2c(-c3ccc(C(=O)N(C)C)cc3F)nc3cc(Cl)ccn23)C1` [Compound A65, methyl (S)-2-((7-chloro-2-(4-(dimethylcarbamoyl)-2-fluoro-phenyl)imidazo[1,2-a]pyridin-3-yl)methyl)morpholine-4-carboxylate]: the IC50 lay in the range of 100 to 1000 nM.

`CCN(C)C(=O)c1ccc(-c2nc3cc(Cl)ccn3c2C[C@H]2CN(C(=O)OC)CCO2)c(F)c1` [Compound A66, methyl (S)-2-((7-chloro-2-(4-(ethyl(methyl)carbamoyl)-2-fluoro-phenyl)imidazo[1,2-a]pyridin-3-yl)methyl)morpholine-4-carboxylate]: the IC50 was below 100 nM.
